The subject of assay [1] is B16. Kind of assay: The compound was tested for cytotoxicity against B16 melanoma cells. Format: functional. The note with it: Mus musculus, read-out: ED50 (the source's name).
Assay [2] in a line: Effective dose required to promote microtubule assembly at 10 uM tubulin concentration. Format: functional.

SMILES strings stand for the structures.

`CC(=O)O[C@H]1C(=O)[C@@]2(C)[C@H]([C@H](OC(=O)c3ccccc3)[C@]3(O)C[C@H](OC(=O)[C@H](O)[C@@H](NC(=O)c4ccccc4)c4ccc(Cl)cc4)C(C)=C1C3(C)C)[C@]1(OC(C)=O)CO[C@@H]1C[C@@H]2O`: the EC50 in assay [1] worked out at 61 nM. In assay [2], the ED50 stood at 1300 nM.

For the compound `CC(=O)O[C@H]1C(=O)[C@@]2(C)[C@H]([C@H](OC(=O)c3ccccc3)[C@]3(O)C[C@H](OC(=O)[C@H](O)[C@@H](NC(=O)c4ccccc4)c4ccccc4)C(C)=C1C3(C)C)[C@]1(OC(C)=O)CO[C@@H]1C[C@@H]2O` [PACLITAXEL], in assay [1], the EC50 came out at 28 nM. In assay [2], the ED50 was 700 nM.

For `CC(=O)O[C@H]1C(=O)[C@]2(C)[C@@H](O)CC3OC[C@@]3(OC(C)=O)[C@H]2[C@H](OC(=O)c2ccccc2)[C@]2(O)C[C@H](OC(=O)[C@H](O)[C@@H](NC(=O)c3ccc(Cl)cc3)c3ccccc3)C(C)=C1C2(C)C` (stereo partly specified), the EC50 in assay [1] came to 43 nM. The ED50 in assay [2] amounted to 1700 nM.

The values are drawn from ChEMBL document CHEMBL1126405, “Novel Biologically Active Taxol Analogues: Baccatin III 13-(N-(p-chlorobenzoyl)-(2R,3S)-3-phenylisoserinate) and Baccatin III 13-(N-benzoyl-(2R,3S)-3-(p-chlorophenyl)isoserinate)” (1992).
